Measurements as given in PubChem BioAssay AID1963979 (Molecular Pharmacology Branch, DTP, NCI, 2024).

System: 361931-004-R-J1-PDC multicell spheroid viability
Test: Anticancer human tumor 361931-004-R-J1-PDC patient-derived colon adenocarcinoma cell line growth inhibition [PI3K]
Conditions: for IC50: curve of first compound; for viability, T/C: stronger effect = lower value
How it was run: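 We assembled tumor spheroids that included a stromal compartment of HUVEC and MSCs, then exposed them to targeted agents alone and together with PI3K pathway inhibitors. Concentration series descended by half-log from clinically achievable Cmax levels. Viability served as the endpoint.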

[1] = second compound 0.0316 µM, first compound 0.0316 µM
[2] = second compound 0.0316 µM, first compound 0.1 µM
[3] = second compound 0.0316 µM, first compound 0.316 µM
[4] = second compound 0.0316 µM, first compound 1 µM
[5] = second compound 0.0316 µM, first compound 3.16 µM
[6] = second compound 0.0316 µM, first compound 10 µM
[7] = second compound 0.1 µM, first compound 0.0316 µM
[8] = second compound 0.1 µM, first compound 0.1 µM
[9] = second compound 0.1 µM, first compound 0.316 µM
[10] = second compound 0.1 µM, first compound 1 µM
[11] = second compound 0.1 µM, first compound 3.16 µM
[12] = second compound 0.1 µM, first compound 10 µM
[13] = second compound 0.316 µM, first compound 0.0316 µM
[14] = second compound 0.316 µM, first compound 0.1 µM
[15] = second compound 0.316 µM, first compound 0.316 µM
[16] = second compound 0.316 µM, first compound 1 µM
[17] = second compound 0.316 µM, first compound 3.16 µM
[18] = second compound 0.316 µM, first compound 10 µM
[19] = second compound 1 µM, first compound 0.0316 µM
[20] = second compound 1 µM, first compound 0.1 µM
[21] = second compound 1 µM, first compound 0.316 µM
[22] = second compound 1 µM, first compound 1 µM
[23] = second compound 1 µM, first compound 3.16 µM
[24] = second compound 1 µM, first compound 10 µM
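Further: spheroids exposed to agents for seven days before readout.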

`CC1(C)CCC(CN2CCN(c3ccc(C(=O)NS(=O)(=O)c4ccc(NCC5CCOCC5)c([N+](=O)[O-])c4)c(Oc4cnc5[nH]ccc5c4)c3)CC2)=C(c2ccc(Cl)cc2)C1` + CC(Nc1ccc2c(c1)OCCn1cc(N3C(=O)OCC3C(F)F)nc1-2)C(N)=O was tested, and the IC50 (second compound 0.00316 µM) was 4.2 µM, the IC50 (second compound 0.01 µM) was 4.29 µM and the IC50 (second compound 0.0316 µM) was 4.05 µM. For the same compound, the IC50 (second compound 0.1 µM) was 3.93 µM, the IC50 (second compound 0.316 µM) was 3.36 µM and the IC50 (second compound 1 µM) was 3.32 µM. For the same compound, the viability, T/C (second compound 0.00316 µM, first compound 0.0316 µM) was 104%, the viability, T/C (second compound 0.00316 µM, first compound 0.1 µM) was 98.4% and the viability, T/C (second compound 0.00316 µM, first compound 0.316 µM) was 112%. It also gave a viability, T/C (second compound 0.00316 µM, first compound 1 µM) of 101%, a viability, T/C (second compound 0.00316 µM, first compound 3.16 µM) of 65.6% and a viability, T/C (second compound 0.00316 µM, first compound 10 µM) of 2.39%. It also gave a viability, T/C (second compound 0.01 µM, first compound 0.0316 µM) of 93.3%, a viability, T/C (second compound 0.01 µM, first compound 0.1 µM) of 99.7% and a viability, T/C (second compound 0.01 µM, first compound 0.316 µM) of 91.5%. It also gave a viability, T/C (second compound 0.01 µM, first compound 1 µM) of 103%, a viability, T/C (second compound 0.01 µM, first compound 3.16 µM) of 67% and a viability, T/C (second compound 0.01 µM, first compound 10 µM) of 2.81%. The viability, T/C [1] was 99.1%, the viability, T/C [2] was 109% and the viability, T/C [3] was 92.1%. For the same compound, the viability, T/C [4] was 101%, the viability, T/C [5] was 63% and the viability, T/C [6] was 2.11%. It also gave a viability, T/C [7] of 99%, a viability, T/C [8] of 99.8% and a viability, T/C [9] of 95.9%. The viability, T/C [10] was 85.3%, the viability, T/C [11] was 61.9% and the viability, T/C [12] was 1.48%. For the same compound, the viability, T/C [13] was 86.7%, the viability, T/C [14] was 84.7% and the viability, T/C [15] was 87.8%. It also gave a viability, T/C [16] of 84.3%, a viability, T/C [17] of 52.7% and a viability, T/C [18] of 1.87%. The viability, T/C [19] was 78%, the viability, T/C [20] was 80.7% and the viability, T/C [21] was 75.8%. For the same compound, the viability, T/C [22] was 71.2%, the viability, T/C [23] was 52.4% and the viability, T/C [24] was 1.28%.
`C#Cc1c(F)ccc2cc(O)cc(-c3ncc4c(N5CC6CCC(C5)N6)nc(OCC56CCCN5CC(F)C6)nc4c3F)c12` (centres undefined) + CC(Nc1ncnc2nc[nH]c12)c1cc2cccc(Cl)c2c(=O)n1-c1ccccc1 gave an IC50 (second compound 0.0316 µM) greater than 10 µM, an IC50 (second compound 0.1 µM) greater than 10 µM and an IC50 (second compound 0.316 µM) greater than 10 µM. It also gave an IC50 (second compound 1 µM) greater than 10 µM, an IC50 (second compound 3.16 µM) greater than 10 µM and an IC50 (second compound 10 µM) greater than 10 µM. It also gave a viability, T/C [1] of 98.8%, a viability, T/C [2] of 105% and a viability, T/C [3] of 105%. For the same compound, the viability, T/C [4] was 102%, the viability, T/C [5] was 98.9% and the viability, T/C [6] was 95.1%. For the same compound, the viability, T/C [7] was 105%, the viability, T/C [8] was 103% and the viability, T/C [9] was 96.8%. It also gave a viability, T/C [10] of 100%, a viability, T/C [11] of 104% and a viability, T/C [12] of 93%. It also gave a viability, T/C [13] of 106%, a viability, T/C [14] of 99.7% and a viability, T/C [15] of 105%. The viability, T/C [16] was 100%, the viability, T/C [17] was 102% and the viability, T/C [18] was 93.3%. For the same compound, the viability, T/C [19] was 97.7%, the viability, T/C [20] was 98.6% and the viability, T/C [21] was 100%. The viability, T/C [22] was 95.2%, the viability, T/C [23] was 104% and the viability, T/C [24] was 84.4%. It also gave a viability, T/C (second compound 3.16 µM, first compound 0.0316 µM) of 104%, a viability, T/C (second compound 3.16 µM, first compound 0.1 µM) of 107% and a viability, T/C (second compound 3.16 µM, first compound 0.316 µM) of 103%. The viability, T/C (second compound 3.16 µM, first compound 1 µM) was 106%, the viability, T/C (second compound 3.16 µM, first compound 3.16 µM) was 107% and the viability, T/C (second compound 3.16 µM, first compound 10 µM) was 81.9%. It also gave a viability, T/C (second compound 10 µM, first compound 0.0316 µM) of 104%, a viability, T/C (second compound 10 µM, first compound 0.1 µM) of 99.8% and a viability, T/C (second compound 10 µM, first compound 0.316 µM) of 91.9%. The viability, T/C (second compound 10 µM, first compound 1 µM) was 91%, the viability, T/C (second compound 10 µM, first compound 3.16 µM) was 90% and the viability, T/C (second compound 10 µM, first compound 10 µM) was 79%.
